The results in this text go back to ChEMBL document CHEMBL5291721, “A preclinical secondary pharmacology resource illuminates target-adverse drug reaction associations of marketed drugs” (Nat Commun, 2023).

Assay [1] deals with T1, Cholecystokinin receptor type A (Homo sapiens, UniProt P32238).
T1 sequence (P32238 whole entry): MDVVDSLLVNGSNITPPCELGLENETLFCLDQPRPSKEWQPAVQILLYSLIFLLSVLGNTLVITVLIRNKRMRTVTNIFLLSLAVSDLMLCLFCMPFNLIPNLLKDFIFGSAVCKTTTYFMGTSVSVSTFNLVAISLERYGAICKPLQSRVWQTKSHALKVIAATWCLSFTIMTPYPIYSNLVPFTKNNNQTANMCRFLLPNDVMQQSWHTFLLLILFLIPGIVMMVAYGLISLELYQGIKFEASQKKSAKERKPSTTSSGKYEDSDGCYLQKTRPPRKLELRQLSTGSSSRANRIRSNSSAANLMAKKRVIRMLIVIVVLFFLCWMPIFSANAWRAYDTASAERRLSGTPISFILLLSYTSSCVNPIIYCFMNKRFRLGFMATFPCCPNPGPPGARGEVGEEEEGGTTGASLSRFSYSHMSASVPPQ

Another assay deals with Mu-type opioid receptor (Homo sapiens, UniProt P35372). The assay can be described thus: biochemical. It counts as functional.
Mu-type opioid receptor, sequence (P35372 whole entry): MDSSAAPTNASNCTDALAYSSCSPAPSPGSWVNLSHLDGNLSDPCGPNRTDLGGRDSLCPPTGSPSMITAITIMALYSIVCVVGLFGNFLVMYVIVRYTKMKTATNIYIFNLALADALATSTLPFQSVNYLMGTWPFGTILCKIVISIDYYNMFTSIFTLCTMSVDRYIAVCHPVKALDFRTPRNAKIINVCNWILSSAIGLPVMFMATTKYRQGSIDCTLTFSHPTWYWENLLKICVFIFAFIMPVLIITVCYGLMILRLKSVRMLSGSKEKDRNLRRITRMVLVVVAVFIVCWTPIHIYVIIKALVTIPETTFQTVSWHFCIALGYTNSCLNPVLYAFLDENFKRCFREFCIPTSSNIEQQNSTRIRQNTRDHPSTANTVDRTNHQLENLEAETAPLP
A further assay addresses T2, B2 bradykinin receptor (Homo sapiens, UniProt P30411).
T2 sequence (P30411 whole entry): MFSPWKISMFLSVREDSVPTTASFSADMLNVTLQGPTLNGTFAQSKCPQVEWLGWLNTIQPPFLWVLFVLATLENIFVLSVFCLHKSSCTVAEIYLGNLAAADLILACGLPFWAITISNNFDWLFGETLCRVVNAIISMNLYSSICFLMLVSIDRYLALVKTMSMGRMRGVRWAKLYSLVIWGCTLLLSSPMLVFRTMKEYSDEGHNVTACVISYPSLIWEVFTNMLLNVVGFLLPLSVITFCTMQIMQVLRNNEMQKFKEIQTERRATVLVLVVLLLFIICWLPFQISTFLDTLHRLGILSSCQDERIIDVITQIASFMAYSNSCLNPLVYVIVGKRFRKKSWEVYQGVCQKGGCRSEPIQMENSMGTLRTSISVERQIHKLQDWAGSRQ

The target of assay [2] is T3, Alpha-1A adrenergic receptor (Homo sapiens, UniProt P35348).
T3 sequence (P35348 whole entry): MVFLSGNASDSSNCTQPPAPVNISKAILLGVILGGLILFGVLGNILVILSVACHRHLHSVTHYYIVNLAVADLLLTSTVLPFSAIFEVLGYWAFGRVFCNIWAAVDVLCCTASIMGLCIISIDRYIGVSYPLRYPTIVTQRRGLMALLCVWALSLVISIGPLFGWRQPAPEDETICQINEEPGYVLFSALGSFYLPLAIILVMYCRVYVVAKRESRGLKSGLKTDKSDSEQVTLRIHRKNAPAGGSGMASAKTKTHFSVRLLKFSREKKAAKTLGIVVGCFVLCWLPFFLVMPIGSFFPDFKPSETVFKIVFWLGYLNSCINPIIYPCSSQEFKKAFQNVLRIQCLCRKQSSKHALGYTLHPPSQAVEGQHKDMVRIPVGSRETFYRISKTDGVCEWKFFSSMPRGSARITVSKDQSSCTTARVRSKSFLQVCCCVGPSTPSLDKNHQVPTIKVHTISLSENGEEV
It counts as functional, cell-based.

Assay [3] deals with Beta-2 adrenergic receptor (Homo sapiens, UniProt P07550).
Beta-2 adrenergic receptor, sequence (P07550 whole entry): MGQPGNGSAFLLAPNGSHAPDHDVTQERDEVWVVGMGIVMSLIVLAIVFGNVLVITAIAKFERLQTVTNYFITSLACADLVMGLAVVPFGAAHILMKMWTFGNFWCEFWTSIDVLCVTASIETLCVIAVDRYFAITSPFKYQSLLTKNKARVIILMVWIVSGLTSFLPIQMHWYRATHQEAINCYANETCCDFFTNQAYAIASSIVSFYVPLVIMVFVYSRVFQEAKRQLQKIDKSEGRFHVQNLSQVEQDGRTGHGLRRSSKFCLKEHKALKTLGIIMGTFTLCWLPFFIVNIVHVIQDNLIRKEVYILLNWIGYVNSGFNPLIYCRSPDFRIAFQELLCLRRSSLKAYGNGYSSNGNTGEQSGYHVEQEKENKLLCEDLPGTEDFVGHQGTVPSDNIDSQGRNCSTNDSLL
A further assay concerns the target T4, Thromboxane A2 receptor (Homo sapiens, UniProt P21731).
T4 sequence (P21731 whole entry): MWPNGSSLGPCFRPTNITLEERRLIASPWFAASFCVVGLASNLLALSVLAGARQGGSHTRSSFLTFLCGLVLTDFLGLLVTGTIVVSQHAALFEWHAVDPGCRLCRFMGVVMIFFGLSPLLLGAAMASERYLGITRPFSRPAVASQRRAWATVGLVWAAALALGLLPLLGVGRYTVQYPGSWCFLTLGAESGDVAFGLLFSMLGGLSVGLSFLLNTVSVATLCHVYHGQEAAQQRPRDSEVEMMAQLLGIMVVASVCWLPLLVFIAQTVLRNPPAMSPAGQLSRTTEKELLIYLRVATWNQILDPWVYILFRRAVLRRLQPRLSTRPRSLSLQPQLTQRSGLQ

In assay [4] the target is 5-hydroxytryptamine receptor 2B (Homo sapiens, UniProt P41595). It counts as functional, cell-based.
5-hydroxytryptamine receptor 2B, sequence (P41595 whole entry): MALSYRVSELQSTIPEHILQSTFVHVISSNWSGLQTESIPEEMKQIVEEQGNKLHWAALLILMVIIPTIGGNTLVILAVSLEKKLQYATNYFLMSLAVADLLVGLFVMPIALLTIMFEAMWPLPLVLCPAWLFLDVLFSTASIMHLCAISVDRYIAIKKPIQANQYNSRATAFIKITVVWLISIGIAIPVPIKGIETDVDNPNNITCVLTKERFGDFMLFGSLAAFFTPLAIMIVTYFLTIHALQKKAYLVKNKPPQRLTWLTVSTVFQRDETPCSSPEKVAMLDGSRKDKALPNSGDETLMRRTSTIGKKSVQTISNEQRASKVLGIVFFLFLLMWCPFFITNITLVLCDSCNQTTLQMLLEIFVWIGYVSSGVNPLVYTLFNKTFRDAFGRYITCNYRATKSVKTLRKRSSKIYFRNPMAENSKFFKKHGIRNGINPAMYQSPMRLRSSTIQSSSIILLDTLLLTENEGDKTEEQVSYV
The next assay has as its target Vasopressin V2 receptor (Homo sapiens, UniProt P30518).

The structures appear in SMILES notation. Where only a bound is given, the exact number is not on record here.
Further: assay procedure not described here.

Vasopressin V2 receptor, sequence (P30518 whole entry): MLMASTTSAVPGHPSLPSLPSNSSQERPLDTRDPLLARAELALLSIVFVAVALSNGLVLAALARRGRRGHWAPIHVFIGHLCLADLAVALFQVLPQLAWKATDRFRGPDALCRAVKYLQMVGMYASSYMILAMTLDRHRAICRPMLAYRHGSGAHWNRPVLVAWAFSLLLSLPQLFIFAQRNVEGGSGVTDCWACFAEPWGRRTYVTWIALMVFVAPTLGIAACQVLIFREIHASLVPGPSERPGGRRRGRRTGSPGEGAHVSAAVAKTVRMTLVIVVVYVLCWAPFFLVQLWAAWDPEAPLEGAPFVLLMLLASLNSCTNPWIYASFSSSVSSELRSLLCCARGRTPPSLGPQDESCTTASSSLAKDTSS

Turning to `C[N+](C)(C)CCOP(=O)([O-])OC[C@H](O)CO`, the AC50 (in assay [1]; at Mu-type opioid receptor; on B2 bradykinin receptor; in assay [2]; in assay [3]; on Thromboxane A2 receptor) was above 30 µM in each case. Also, the half-maximal activity concentration (AC50) (in assay [4]; on Vasopressin V2 receptor) was above 30 µM throughout.

For the molecule `CC1=C(C(=O)OC(C)C)C(c2cccc([N+](=O)[O-])c2)C(C(=O)OC2CN(C(c3ccccc3)c3ccccc3)C2)=C(N)N1` (stereo not given) [AZELNIDIPINE], the AC50 in assay [1] is above 30 µM; on Mu-type opioid receptor it was above 30 µM; at B2 bradykinin receptor it was above 10 µM; in assay [2], above 30 µM; in assay [3], above 30 µM; on Thromboxane A2 receptor it was above 30 µM. Also, the AC50 (in assay [4]; on Vasopressin V2 receptor) was above 30 µM in each case.

For the molecule `CN[C@]1(c2ccccc2Cl)CCCCC1=O` [ESKETAMINE], the AC50 (in assay [1]; at Mu-type opioid receptor; at B2 bradykinin receptor; in assay [2]; in assay [3]; at Thromboxane A2 receptor) was above 30 µM each time. Moreover, the AC50 (in assay [4]; at Vasopressin V2 receptor) was above 30 µM each time.

With `COc1ccc([C@@H]2CC(=O)c3c(O)cc(O)cc3O2)cc1O` [HESPERETIN], the AC50 was above 10 µM in assay [1]; above 30 µM at Mu-type opioid receptor; above 10 µM at B2 bradykinin receptor; above 10 µM in assay [3]; above 10 µM at Thromboxane A2 receptor; above 10 µM in assay [4]. This molecule displayed an AC50 on Vasopressin V2 receptor above 10 µM.

As to `CNCCc1ccc(OC(=O)C(C)C)c(OC(=O)C(C)C)c1` [IBOPAMINE], the AC50 in assay [1] was above 30 µM; at Mu-type opioid receptor, above 30 µM; at B2 bradykinin receptor, above 30 µM; in assay [2] it was 0.131 µM; in assay [3], above 30 µM; at Thromboxane A2 receptor, above 30 µM. For the same molecule, the AC50 (in assay [4]; on Vasopressin V2 receptor) was above 30 µM in each case.

As to `CN(C)CCCN1c2ccccc2CCc2ccccc21` [IMIPRAMINE], the AC50 in assay [1] was above 30 µM; at Mu-type opioid receptor it was 28 µM; on B2 bradykinin receptor, above 30 µM; in assay [2] it was above 30 µM; in assay [3] it was above 10 µM; on Thromboxane A2 receptor, above 30 µM. The AC50 in assay [4] is above 10 µM; at Vasopressin V2 receptor it was above 30 µM.

On to `CCOC(=O)C1=C(C)NC(C)=C(C(=O)OCC)C1c1ccccc1/C=C/C(=O)OC(C)(C)C` [LACIDIPINE], for which the AC50 (in assay [1]; on Mu-type opioid receptor; at B2 bradykinin receptor; in assay [2]; in assay [3]; at Thromboxane A2 receptor) was above 30 µM in each case. Moreover, the AC50 (in assay [4]; on Vasopressin V2 receptor) was above 30 µM throughout.

In the case of `CCC[C@@H]1C[C@@H](C(=O)N[C@@H]([C@H]2O[C@H](SC)[C@H](O)[C@@H](O)[C@H]2O)[C@@H](C)O)N(C)C1` [LINCOMYCIN], the AC50 in assay [1] is above 10 µM; on Mu-type opioid receptor it was above 30 µM; at B2 bradykinin receptor it was above 10 µM; in assay [2] it was above 30 µM; in assay [3], above 10 µM; at Thromboxane A2 receptor it was above 10 µM. Moreover, the AC50 in assay [4] is above 30 µM; on Vasopressin V2 receptor it was above 10 µM.

With `COC(=O)C1=C(C)NC(C)=C(C(=O)OCCN2CCN(C(c3ccccc3)c3ccccc3)CC2)C1c1cccc([N+](=O)[O-])c1` (stereo not given) [MANIDIPINE 6300], the AC50 (in assay [1]; at Mu-type opioid receptor; on B2 bradykinin receptor; in assay [2]; in assay [3]; at Thromboxane A2 receptor) was above 30 µM in each case. The AC50 (in assay [4]; at Vasopressin V2 receptor) was above 30 µM in each case.

As for `Cc1ccccc1N1C(=O)c2cc(S(N)(=O)=O)c(Cl)cc2NC1C` (stereo not given) [METOLAZONE], the AC50 in assay [1] is above 10 µM; at Mu-type opioid receptor it was above 30 µM; on B2 bradykinin receptor, above 10 µM; in assay [3], above 10 µM; at Thromboxane A2 receptor, above 10 µM; in assay [4] it was above 10 µM. This molecule also came in with an AC50 on Vasopressin V2 receptor above 10 µM.

`O=C(O)c1cccnc1Nc1cccc(C(F)(F)F)c1` [NIFLUMIC ACID]: the AC50 in assay [1] is above 10 µM; on Mu-type opioid receptor, above 30 µM; at B2 bradykinin receptor, above 10 µM; in assay [3], above 10 µM; on Thromboxane A2 receptor, above 10 µM; in assay [4], above 10 µM. On Vasopressin V2 receptor, the AC50 is above 10 µM.

Turning to `O=C1c2cccc3c2[C@H](CCC3)CN1[C@@H]1CN2CCC1CC2` [PALONOSETRON], the AC50 (in assay [1]; at Mu-type opioid receptor; at B2 bradykinin receptor; in assay [2]; in assay [3]; on Thromboxane A2 receptor) was above 30 µM each time. Also, the AC50 (in assay [4]; on Vasopressin V2 receptor) was above 30 µM each time.

Regarding `Cc1cccc(C)c1NC(=O)CC12CCCN1CCC2` [PILSICAINIDE], the AC50 (in assay [1]; on Mu-type opioid receptor; at B2 bradykinin receptor; in assay [2]; in assay [3]; at Thromboxane A2 receptor) was above 30 µM in each case. The AC50 (in assay [4]; at Vasopressin V2 receptor) was above 30 µM in each case.

Turning to `CN[C@@H](C)[C@@H](O)c1ccccc1` [PSEUDOEPHEDRINE], the AC50 in assay [1] was above 30 µM; at Mu-type opioid receptor, above 30 µM; at B2 bradykinin receptor, above 30 µM; in assay [3] it was above 10 µM; on Thromboxane A2 receptor, above 30 µM; in assay [4], above 10 µM. This molecule also displayed an AC50 at Vasopressin V2 receptor above 30 µM.

`CCCN1CC(NS(=O)(=O)N(CC)CC)CC2Cc3c(O)cccc3CC21` (stereo not given) [QUINAGOLIDE]: the AC50 was above 30 µM in assay [1]; above 30 µM at Mu-type opioid receptor; above 30 µM at B2 bradykinin receptor; 0.45 µM in assay [2]; above 30 µM in assay [3]; above 30 µM on Thromboxane A2 receptor. The figures for the AC50 (in assay [4]; on Vasopressin V2 receptor) were 3.67 µM and above 30 µM, respectively.

Turning to `C[C@]12CCC(=O)C[C@@H]1CC[C@@H]1[C@@H]2CC[C@]2(C)[C@@H](O)CC[C@@H]12` [STANOLONE], the AC50 (in assay [1]; on Mu-type opioid receptor; on B2 bradykinin receptor; in assay [2]; in assay [3]; at Thromboxane A2 receptor) was above 30 µM throughout. Also, the AC50 (in assay [4]; on Vasopressin V2 receptor) was above 30 µM throughout.

Consider `C[C@]12C=CC(=O)C=C1CC[C@@H]1[C@@H]2CC[C@]2(C)OC(=O)CC[C@@H]12` [TESTOLACTONE], for which the AC50 in assay [1] was above 10 µM; on Mu-type opioid receptor, above 30 µM; on B2 bradykinin receptor, above 10 µM; in assay [2], above 30 µM; in assay [3], above 10 µM; at Thromboxane A2 receptor, above 10 µM. Besides, the half-maximal activity concentration (AC50) in assay [4] was above 30 µM; at Vasopressin V2 receptor it was above 10 µM.

With `CCOC(=O)c1c(CSc2ccccc2)n(C)c2cc(Br)c(O)c(CN(C)C)c12` [UMIFENOVIR], the AC50 (in assay [1]; on Mu-type opioid receptor; at B2 bradykinin receptor; in assay [2]; in assay [3]; on Thromboxane A2 receptor) was above 30 µM in each case. Further, the AC50 (in assay [4]; on Vasopressin V2 receptor) was above 30 µM each time.
